Measurements published in PMC4468608, “A distinct p53 target gene set predicts for response to the selective p53–HDM2 inhibitor NVP-CGM097” (eLife, 2015).
Read-outs that look alike come from different tables or passages of the source.

Legend:
HCT-116 p53-null = assay: Cell proliferation assay (YOPRO); assay type: cell-based; conditions: Homo sapiens, HCT116-p53-null
Protocol: (§1) Figure 1. […] (^d) Selectivity is determined by the ratio of GI50 obtained using SAOS-2 (p53-null) and SJSA-1 (p53^WT and HDM2-amplified) osteosarcoma pair of cell lines. […] The data used to generate these plots, as well as cell line identity is available in Figure 1—source data 1. […] The blue color indicates the reverse profile. Brighter colors indicate which target classes pass the 0.25 FDR cut-off.
(§2) All other cell lines were obtained from ATCC (American Type Culture Collection), DSMZ (Deutsche Sammlung von Mikroorganismen und Zellkulturen), and HSRRB (Health Science Research Resources Bank) and cultured in RPMI or Dulbecco's modified Eagle's medium plus 10% FBS (Invitrogen, Carlsbad, CA) at 37°C, 5% CO2.

HCT-116 p53WT = assay: Cell proliferation assay (YOPRO); assay type: cell-based; conditions: Homo sapiens, HCT-116, read-out: HCT-116 p53WT GI50
Protocol: as §1, §2

SAOS-2 (p53-null) = assay: Cell proliferation assay (YOPRO); assay type: cell-based; conditions: Homo sapiens
Protocol: as §1, §2

[1] = tested on: SJSA-1 (p53WT and HDM2-amplified); assay: Cell proliferation assay (YOPRO); assay type: cell-based; conditions: Homo sapiens, SJSA-1, read-out: SJSA-1 GI50
Protocol: as §1, §2

[2] = PK parameters in preclinical species; assay type: in vivo; conditions: Mouse
[3] = PK parameters in preclinical species; assay type: in vivo; conditions: Rat
[4] = PK parameters in preclinical species; assay type: in vivo; conditions: Dog
[5] = PK parameters in preclinical species; assay type: in vivo; conditions: Monkey
[6] = single dose 1 mg/kg i.v. or 3 mg/kg p.o.
[7] = in vivo, iv, 1 mg/kg i.v., dose-normalized to 1 mg/kg, read-out: AUCinf i.v.
[8] = in vivo, iv, single dose 1 mg/kg i.v. or 3 mg/kg p.o.
[9] = in vivo, iv, single dose 1 mg/kg i.v. or 3 mg/kg p.o., read-out: Vss
[10] = in vivo, po, 3 mg/kg p.o., dose-normalized to 1 mg/kg
[11] = in vivo, po, 3 mg/kg p.o., dose-normalized to 1 mg/kg, read-out: AUCinf p.o.
[12] = single dose 0.1 mg/kg i.v. or 0.3 mg/kg p.o.
[13] = in vivo, iv, 0.1 mg/kg i.v., dose-normalized to 1 mg/kg, read-out: AUCinf i.v.
[14] = in vivo, iv, single dose 0.1 mg/kg i.v. or 0.3 mg/kg p.o.
[15] = in vivo, iv, single dose 0.1 mg/kg i.v. or 0.3 mg/kg p.o., read-out: Vss
[16] = in vivo, po, 0.3 mg/kg p.o., dose-normalized to 1 mg/kg
[17] = in vivo, po, 0.3 mg/kg p.o., dose-normalized to 1 mg/kg, read-out: AUCinf p.o.

With COc1cc2c(cc1OC(C)C)[C@H](c1ccc(Cl)cc1)N(c1ccc(N(C)C[C@H]3CC[C@H](N4CCNC(=O)C4)CC3)cc1)C(=O)C2 [NVP-CFC218] the IC50 (HCT-116 p53-null; HCT-116 p53-null cells remained insensitive) was ≥ 10 µM, the GI50 (HCT-116 p53-null; mean ± SD, n ≥ 8) was 15.9 µM and the GI50 (HCT-116 p53WT) was 0.473 ± 0.1 µM. For the same molecule, the GI50 (SAOS-2 (p53-null); SAOS-2, mean ± SD, n ≥ 8) was 19.8 µM, the IC50 (SAOS-2 (p53-null); SAOS-2 p53 null cells remained insensitive) was ≥ 10 µM and the GI50 [1] was 0.353 ± 0.172 µM. The “Oral BA” value ([2]; 1 mg/kg i.v., 3 mg/kg p.o.) was 43 %F, the t1/2app. [2, 6] was 3.6 h and the AUC(0-inf) [2, 7] was 2800 nM·h. It also gave a clearance [2, 8] of 0.54 L/h/kg, a Vd [2, 9] of 3.1 L/kg and a Tmax ([2]; in vivo, po, 3 mg/kg p.o.) of 2 h. For the same molecule, the Cmax [2, 10] was 0.094 µM, the AUC(0-inf) [2, 11] was 1200 nM·h and the “Oral BA” value ([3]; 1 mg/kg i.v., 3 mg/kg p.o.) was 49 ± 15 %F. The t1/2app. [3, 6] was 9.3 ± 1.9 h, the AUC(0-inf) [3, 7] was 2210 ± 210 nM·h and the clearance [3, 8] was 0.72 ± 0.06 L/h/kg. It also gave a Vd [3, 9] of 8 ± 1.8 L/kg, a Tmax ([3]; in vivo, po, 3 mg/kg p.o.) of 4 ± 1.4 h and a Cmax [3, 10] of 0.075 ± 0.023 µM. For the same molecule, the AUC(0-inf) [3, 11] was 1070 ± 340 nM·h, the “Oral BA” value ([4]; 0.1 mg/kg i.v., 0.3 mg/kg p.o.) was 71 ± 8 %F and the t1/2app. [4, 12] was 14.4 ± 0.7 h. The AUC(0-inf) [4, 13] was 8080 ± 1680 nM·h, the clearance [4, 14] was 0.18 ± 0.06 L/h/kg and the Vd [4, 15] was 3.6 ± 0.5 L/kg. It also gave a Tmax ([4]; in vivo, po, 0.3 mg/kg p.o.) of 3.3 ± 1.2 h, a Cmax [4, 16] of 0.24 ± 0.043 µM and an AUC(0-inf) [4, 17] of 5740 ± 680 nM·h. The “Oral BA” value ([5]; 0.1 mg/kg i.v., 0.3 mg/kg p.o.) was 14 ± 2 %F, the t1/2app. [5, 12] was 2.6 ± 0.3 h and the AUC(0-inf) [5, 13] was 2370 ± 310 nM·h. The clearance [5, 14] was 0.66 ± 0.12 L/h/kg, the Vd [5, 15] was 2.1 ± 0.3 L/kg and the Tmax ([5]; in vivo, po, 0.3 mg/kg p.o.) was 1 ± 0.1 h. The Cmax [5, 16] was 0.077 ± 0.014 µM and the AUC(0-inf) [5, 17] was 340 ± 50 nM·h.
